Here are results for 13 compounds from PMC8540948, “Design and Synthesis of Newly Synthesized Acrylamide Derivatives as Potential Chemotherapeutic Agents against MCF-7 Breast Cancer Cell Line Lodged on PEGylated Bilosomal Nano-Vesicles for Improving Cytotoxic Activity” (Pharmaceuticals, 2021).

A word on the IC50: it is the concentration needed to halve the response being measured. What is called melting point is the temperature of the solid-liquid transition.

A value given as a limit tells only on which side of the number the result lay.

The test system of series [1] is breast cancer MCF-7 cell line. The series can be described thus: MTT cytotoxicity against breast cancer MCF-7 cell line. Type of series: cell-based. The conditions noted are these: MTT assay, 24 h drug treatment. On the procedure:
Compounds 2–5d were evaluated for their cytotoxic activities against breast cancer MCF-7 cell line by using an MTT colorimetric assay. Cisplatin was used as reference drug in this study. […] Additionally, the therapeutic safety of N-(3-hydroxy-4-methoxy) aryl amide derivative 4e was determined by screening its cytotoxic activity against normal breast cell line (MCF-10A) using an MTT colorimetric assay. […]
(§1) Cytotoxic activity of the newly prepared acrylamide derivatives 2–5d were carried out against breast MCF-7 cancer cell line using the MTT assay method. Compound 4e was screened for its effects on normal breast cell line MCF-10A. Cells at density of 1 × 10^4 were seeded in a 96-well plate at 37 °C for 48 h under 5% CO2. After incubation, the cells were treated with different concentrations of the test compounds and incubated for 24 h. After 24 h of drug treatment, 20 μL of MTT solution at 5 mg/mL was applied and incubated for 4 h at 37 °C. Dimethyl sulphoxide (DMSO) in volume of 100 µL was added to each well to dissolve the purple formazan that had formed. The color intensity of the formazan product, which represents the growth condition of the cells, is quantified by using an ELISA plate reader (EXL 800, USA) at 570 nm absorbance. The experimental conditions were carried out with at least three replicates, and the experiments were repeated at least three times.

In series [2] the test system is normal breast cell line (MCF-10A). The series can be described thus: MTT cytotoxicity against normal breast cell line MCF-10A. The note with it: MTT assay. Type of series: cell-based. How it is done:
Compounds 2–5d were evaluated for their cytotoxic activities against breast cancer MCF-7 cell line by using an MTT colorimetric assay. Cisplatin was used as reference drug in this study. […] Additionally, the therapeutic safety of N-(3-hydroxy-4-methoxy) aryl amide derivative 4e was determined by screening its cytotoxic activity against normal breast cell line (MCF-10A) using an MTT colorimetric assay.
as §1

The next series concerns MCF-7 cells. As to the kind of experiment: Cell cycle analysis by DNA flow cytometry. Type of series: cell-based. The conditions noted are these: MCF-7, 48 h, 4e at IC50 (2.11 μM), PTX 0.1 μM. How it is done: In order to study the mechanism of the cytotoxic activity of compound 4e, cell cycle analysis was investigated in breast cancer MCF-7 cells by DNA flow cytometry analysis at IC50 dose values of compound 4e for 48 h. Paclitaxel (PTX, 0.1 μM) was used as the reference drug in this study.
MCF-7 cells (2 × 10^5/well) were harvested and washed twice in PBS. After that, the cells were incubated at 37 °C and 5% CO2. The medium was replaced with DMSO 1% v/v containing the tested compound 4e (2.11 μM) and PTX (0.1 μM), then incubated for 48 h, washed twice in PBS, fixed with 70% ethanol, rinsed again with PBS and then stained with DNA fluorochrome PI for 15 min at 37 °C. The samples were analyzed by flow cytometry on a FACS Calibur flow cytometer (Becton and Dickinson, Heidelberg, Germany).
(Flow cytometry measures light scatter and fluorescence of single cells or particles in a stream.)

In a further series the test system is β-tubulin. The series can be described thus: β-tubulin inhibition percentage by ELISA (tubulin polymerization inhibition). Type of series: biochemical. The conditions noted are these: 5 μM concentration. (In general: In an ELISA, binding on a coated surface is turned into a signal by an enzyme label.)
A further series concerns tubulin assembly. Also noted: method as in PMID 25721862. The note with it: cited from earlier work.

Regarding `N.N.[Cl][Pt][Cl]` [Cisplatin, reference compound], the concentration for half-maximal inhibition (IC50) in series [1] is 1.02 ± 0.12 µM; in series [2], 22.62 ± 0.19 µM.

The compound `CCOC(=O)C(=Cc1ccco1)NC(=O)c1cc(OC)c(OC)c(OC)c1` [Compound 2, Ethyl 3-(Furan-2-yl)-2-(3,4,5-trimethoxybenzamido)acrylate] returned a melting point of 126 to 128 °C. For the same compound, in series [1] (Homo sapiens, MCF7, 24 h), the concentration for half-maximal inhibition (IC50) is more than 50 µM.

`COc1cc(C(=O)NC(=Cc2ccco2)C(=O)NC(C)C)cc(OC)c1OC` [Compound 3, N-[1-(Furan-2-yl)-3-(isopropylamino)-3-oxoprop-1-en-2-yl]-3,4,5-trimethoxybenzamide] had a melting point of 168 to 170 °C. In series [1] (Homo sapiens, MCF7, 24 h), this compound had an IC50 of 4.73 ± 0.27 µM.

Regarding `COc1ccccc1CNC(=O)C(=Cc1ccco1)NC(=O)c1cc(OC)c(OC)c(OC)c1` [Compound 5b, N-[1-(Furan-2-yl)-3-((2-methoxybenzyl)amino)-3-oxoprop-1-en-2-yl]-3,4,5-trimethoxybenzamide], the melting point was 166 to 168 °C. In series [1] (Homo sapiens, MCF7, 24 h), this compound showed an IC50 of 5.03 ± 1.01 µM.

As to `COc1ccc(NC(=O)C(=Cc2ccco2)NC(=O)c2cc(OC)c(OC)c(OC)c2)cc1O` [Compound 4e, N-[1-(Furan-2-yl)-3-(3-hydroxy-4-methoxyphenylamino)-3-oxoprop-1-en-2-yl]-3,4,5-trimethoxybenzamide], in the series on MCF-7 cells (untreated control 1.73%), the “percentage of cells in pre-G1 phase” value worked out at 24.62%. For the same compound, in the series on MCF-7 cells (untreated control 8.39%), the “percentage of cells in G2/M phase” value is 42.50%. In the series on β-tubulin, this compound had a β-tubulin inhibition percentage of 89%. The IC50 was determined as 2.11 ± 0.19 µM in series [1] (Homo sapiens, MCF7, 24 h) and 29.3 ± 1.21 µM in series [2] (Homo sapiens).

`COc1cc(C(=O)NC(=Cc2ccco2)C(=O)Nc2ccc(O)cc2)cc(OC)c1OC` [Compound 4d, N-[1-(Furan-2-yl)-3-(4-hydroxyphenylamino)-3-oxoprop-1-en-2-yl]-3,4,5-trimethoxybenzamide] returned a melting point of 214 to 216 °C. Further, the IC50 in series [1] (Homo sapiens, MCF7, 24 h) is 18.4 ± 1.14 µM.

Compound `COc1cc(C(=O)NC(=Cc2ccco2)C(=O)Nc2ccccc2C)cc(OC)c1OC` [Compound 4a, N-[1-(Furan-2-yl)-3-oxo-3-(o-tolylamino)prop-1-en-2-yl]-3,4,5-trimethoxybenzamide] had a melting point of 222 to 224 °C. In series [1] (Homo sapiens, MCF7, 24 h), this compound displayed an IC50 of 27.3 ± 1.21 µM.

The compound `COc1cc(C(=O)NC(=Cc2ccco2)C(=O)NCc2cccc(C)c2)cc(OC)c1OC` [Compound 5a, N-[1-(Furan-2-yl)-3-((3-methylbenzyl)amino)-3-oxoprop-1-en-2-yl]-3,4,5-trimethoxybenzamide] registered a melting point of 175 to 177 °C. Also, 3.92 ± 0.21 µM corresponded to half-maximal inhibition in series [1] (Homo sapiens, MCF7, 24 h) (IC50).

The compound `COc1cccc(CNC(=O)C(=Cc2ccco2)NC(=O)c2cc(OC)c(OC)c(OC)c2)c1` [Compound 5c, N-[1-(Furan-2-yl)-3-(3-methoxybenzylamino)-3-oxoprop-1-en-2-yl]-3,4,5-trimethoxybenzamide] showed a melting point of 164 to 166 °C. The same compound gave a 50% inhibitory concentration (IC50) in series [1] (Homo sapiens, MCF7, 24 h) of 2.61 µM. The compound also registered an IC50 in series [1] of 3.03 ± 0.39 µM.

For `COc1cc(C(=O)NC(=Cc2ccco2)C(=O)Nc2cccc(C)c2)cc(OC)c1OC` [Compound 4b, N-[1-(Furan-2-yl)-3-oxo-3-(m-tolylamino)prop-1-en-2-yl]-3,4,5-trimethoxybenzamide], the melting point lay in the range of 217 to 219 °C. Further, inhibition in series [1] (Homo sapiens, MCF7, 24 h) was half-maximal at 10.4 ± 1.09 µM (IC50).

`COc1ccc(C(=O)/C=C/c2cc(C(=O)c3cc(OC)c(OC)c(OC)c3)ccc2OC)cc1N` [Compound IV]: in the series on tubulin assembly, the concentration for half-maximal inhibition (IC50) is 0.6 µM.

The compound `COc1ccc(NC(=O)C(=Cc2ccco2)NC(=O)c2cc(OC)c(OC)c(OC)c2)cc1` [Compound 4c, N-[1-(Furan-2-yl)-3-(4-methoxyphenylamino)-3-oxoprop-1-en-2-yl]-3,4,5-trimethoxybenzamide] returned a melting point of 249 to 251 °C. This compound came in with a 50% inhibitory concentration (IC50) in series [1] (Homo sapiens, MCF7, 24 h) of 26.2 ± 1.21 µM.

`COc1ccc(CNC(=O)C(=Cc2ccco2)NC(=O)c2cc(OC)c(OC)c(OC)c2)cc1OC` [Compound 5d, N-[3-((3,4-Dimethoxybenzyl)amino)-1-(furan-2-yl)-3-oxoprop-1-en-2-yl]-3,4,5-trimethoxybenzamide] yielded a melting point of 124 to 126 °C. The same compound registered an IC50 in series [1] (Homo sapiens, MCF7, 24 h) of 2.61 ± 0.32 µM.
